Measurements published in patent publication US20240408169A1 (priority 2023, published 2024).
*1 amine or outer side, *2 acyl side, *3 side chain or, on linkers, in order; H or OH if unused. Where a SMILES comes first, the peptide text is derived from it. Bridges are numbered along the chain shown (N, C = ends). [ ]: non-standard residue; d: D form. The star is where a group is joined. X122 = CN([C@@H](Cc1cc(Cl)ccc1C1=CCN(C(=O)C(C)(C)C)CC1)C(=O)[*:2])[*:1]; X119 = CC(=O)N1C2C=C(c3ccc(F)cc3C[C@@H](C(=O)[*:2])N(C)[*:1])CC1COC2; X181 = CN([C@@H](Cc1cc(Cl)ccc1C1=CCN(C(=O)C2CC2)CC1)C(=O)[*:2])[*:1]; NMeAla(5-Cl-2-cPrO-3-pyridyl) = CN[C@@H](Cc1cc(Cl)cnc1OC1CC1)C(=O)O; X167 = CN([C@@H](Cc1cc(F)ccc1C1=CCN(S(C)(=O)=O)CC1)C(=O)[*:2])[*:1]; X137 = CN([C@@H](Cc1cc(F)ccc1-c1cnn(S(C)(=O)=O)c1)C(=O)[*:2])[*:1]; X200 = CN([C@@H](Cc1cc(F)ccc1C1CCN(C(=O)C2CC2)CC1)C(=O)[*:2])[*:1]; X153 = CN([C@@H](Cc1cc(F)ccc1-c1cnn(C2CCOCC2)c1)C(=O)[*:2])[*:1]; X151 = CN([C@@H](Cc1cc(Cl)ccc1-c1cnn(C2CCC2)c1)C(=O)[*:2])[*:1]; X178 = CN([C@@H](Cc1cc(F)ccc1-c1cnn(C2CCOC2)c1)C(=O)[*:2])[*:1]; X208 = CN([C@@H](Cc1cc(F)ccc1-c1cnn(CC(F)F)c1)C(=O)[*:2])[*:1]; X26 = CN([C@@H](Cc1cc(F)ccc1-c1cnn(C2CC2)c1)C(=O)[*:2])[*:1]; NMehhhLys(Me) = CN([C@@H](CCCCCCCN(C)[*:3])C(=O)[*:2])[*:1]; NMe(hhhLys) = CN([C@@H](CCCCCCCN[*:3])C(=O)[*:2])[*:1]; Cyclobutanecarbonyl(1-CF3) = O=C(C1(C(F)(F)F)CCC1)*; cBuCO(3,3-F2-1-CF3) = O=C(C1(C(F)(F)F)CC(F)(F)C1)*; X161 = Cc1ccc(F)cc1C[C@@H](C(=O)[*:2])N(C)[*:1]; Pro(trans-4-F) = O=C(O)[C@@H]1C[C@@H](F)CN1; Gly(cPr) = N[C@H](C(=O)O)C1CC1; X129 = N#CC1(C(=O)*)CCC1

Assays:
NCI-H1048 cells = assay: MTT proliferation assay, NCI-H1048; format: cell-based; settings: 5 days compound exposure, 1:3 serial dilution starting at 10 μM;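 further: Dose-response in 96-well plates over 8 or 10 concentration points, with exposure spanning 3-4 cell doublings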
CyclinA2/CDK2 = biological target: T1, CyclinA2/CDK2 (Homo sapiens, UniProt P20248); assay: Fluorescence Polarization (FP) competitive binding assay, Cyclin A2/Cdk2; settings: 8 nM Cyclin A2/Cdk2, 2 nM FAM probe; average of 2-3 independent experiments; read-out: Cyclin A FP IC50;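 further: plates equilibrated two hours at room temperature before polarization reading, IC50 fitted from eight-concentration compound titration curves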
T1 construct: purchased CRELUX Protein Services

CyclinB1/CDK1 = biological target: T2, CyclinB1/CDK1 (Homo sapiens, UniProt P14635); assay: Fluorescence Polarization (FP) competitive binding assay, Cyclin B1/Cdk1; settings: 10 nM Cyclin B1/Cdk1, 2 nM FAM probe; average of 2-3 independent experiments; read-out: Cyclin B FP IC50;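 further: fluorescence polarization read after equilibration at room temperature, with IC50 taken from serially diluted dose-response curves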
T2 construct: purchased Eurofins, discovery 14-450

CyclinE1/CDK2 = biological target: T3, CyclinE1/CDK2 (Homo sapiens, UniProt P24864); assay: Fluorescence Polarization (FP) competitive binding assay, Cyclin E1/Cdk2; settings: 10 nM Cyclin E1/Cdk2, 2 nM FAM probe; average of 2-3 independent experiments; read-out: Cyclin E FP IC50;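 further: readings taken after two-hour equilibration at room temperature in HEPES buffer with NaCl, DTT, NP-40 and BSA, IC50 fitted from eight-concentration serial dilution series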
T3 construct: purchased Eurofins, discovery 14-475

OVCAR3 cells = assay: MTT proliferation assay, OVCAR3; format: cell-based; settings: 5 days compound exposure, 1:3 serial dilution starting at 10 μM;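 further: compound given as an 8- or 10-point series, one day after plating, with exposure covering roughly 3-4 cell doublings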

Row | Compound | GI50 (NCI-H1048 cells) [nM] | IC50 (CyclinA2/CDK2) [nM] | IC50 (CyclinB1/CDK1) [nM] | IC50 (CyclinE1/CDK2) [nM] | GI50 (OVCAR3 cells) [nM]
1 | CC(C)C[C@@H]1NC(=O)[C@@H](N(C)C(=O)[C@@H](NC(=O)[C@@H]2C[C@@H](F)CN2C(=O)C2(C(F)(F)F)CCC2)C2CC2)CCCCCCCN(C)C(=O)[C@H](Cc2cc(F)ccc2-c2cnn(CC(F)F)c2)N(C)C1=O [Example 92] ({Cyclobutanecarbonyl(1-CF3)}-[Pro(trans-4-F)][Gly(cPr)][NMehhhLys(Me)]L[X208]; lactam 3-C) | 10 | 20 | 20 | 100 | 10
2 | CC(C)C[C@@H]1NC(=O)[C@@H](N(C)C(=O)[C@@H](NC(=O)[C@@H]2C[C@@H](F)CN2C(=O)C2(C(F)(F)F)CC(F)(F)C2)C2CC2)CCCCCCCN(C)C(=O)[C@H](Cc2cc(F)ccc2-c2cnn(C3CCOCC3)c2)N(C)C1=O [Example 93] ({cBuCO(3,3-F2-1-CF3)}-[Pro(trans-4-F)][Gly(cPr)][NMehhhLys(Me)]L[X153]; lactam 3-C) | 10 | 20 | 20 | 140 | 10
3 | CC(C)C[C@@H]1NC(=O)[C@@H](N(C)C(=O)[C@@H](NC(=O)[C@@H]2C[C@@H](F)CN2C(=O)C2(C(F)(F)F)CC(F)(F)C2)C2CC2)CCCCCCCN(C)C(=O)[C@H](Cc2cc(F)ccc2-c2cnn(C3CCOC3)c2)N(C)C1=O (stereo partly drawn) [Example 94] ({cBuCO(3,3-F2-1-CF3)}-[Pro(trans-4-F)][Gly(cPr)][NMehhhLys(Me)]L[X178]; lactam 3-C) | 10 | 20 | 20 | 180 | 10
4 | CC(C)C[C@@H]1NC(=O)[C@@H](N(C)C(=O)[C@@H](NC(=O)[C@@H]2C[C@@H](F)CN2C(=O)C2(C(F)(F)F)CC(F)(F)C2)C2CC2)CCCCCCCN(C)C(=O)[C@H](Cc2cc(F)ccc2-c2cnn(S(C)(=O)=O)c2)N(C)C1=O [Example 95] ({cBuCO(3,3-F2-1-CF3)}-[Pro(trans-4-F)][Gly(cPr)][NMehhhLys(Me)]L[X137]; lactam 3-C) | 10 | 50 | 20 | 530 | 20
5 | CC(C)C[C@@H]1NC(=O)[C@@H](N(C)C(=O)[C@@H](NC(=O)[C@@H]2C[C@@H](F)CN2C(=O)C2(C(F)(F)F)CC(F)(F)C2)C2CC2)CCCCCCCNC(=O)[C@H](Cc2cc(Cl)ccc2C2=CCN(C(=O)C3CC3)CC2)N(C)C1=O [Example 97] ({cBuCO(3,3-F2-1-CF3)}-[Pro(trans-4-F)][Gly(cPr)][NMe(hhhLys)]L[X181]; lactam 3-C) | 20 | 20 | 20 | 1450 | 30
6 | CC(C)C[C@@H]1NC(=O)[C@@H](N(C)C(=O)[C@@H](NC(=O)[C@@H]2C[C@@H](F)CN2C(=O)C2(C(F)(F)F)CC(F)(F)C2)C2CC2)CCCCCCCNC(=O)[C@H](Cc2cc(Cl)ccc2C2=CCN(C(=O)C(C)(C)C)CC2)N(C)C1=O [Example 99] ({cBuCO(3,3-F2-1-CF3)}-[Pro(trans-4-F)][Gly(cPr)][NMe(hhhLys)]L[X122]; lactam 3-C) | 20 | 20 | 20 | 1540 | 30
7 | CC(C)C[C@@H]1NC(=O)[C@@H](N(C)C(=O)[C@@H](NC(=O)[C@@H]2C[C@@H](F)CN2C(=O)C2(C(F)(F)F)CC(F)(F)C2)C2CC2)CCCCCCCN(C)C(=O)[C@H](Cc2cc(F)ccc2C2=CCN(S(C)(=O)=O)CC2)N(C)C1=O [Example 100] ({cBuCO(3,3-F2-1-CF3)}-[Pro(trans-4-F)][Gly(cPr)][NMehhhLys(Me)]L[X167]; lactam 3-C) | 20 | 20 | 20 | 450 | 20
8 | CC(C)C[C@@H]1NC(=O)[C@@H](N(C)C(=O)[C@@H](NC(=O)[C@@H]2C[C@@H](F)CN2C(=O)C2(C(F)(F)F)CC(F)(F)C2)C2CC2)CCCCCCCN(C)C(=O)[C@H](Cc2cc(F)ccc2C2CCN(C(=O)C3CC3)CC2)N(C)C1=O [Example 101] ({cBuCO(3,3-F2-1-CF3)}-[Pro(trans-4-F)][Gly(cPr)][NMehhhLys(Me)]L[X200]; lactam 3-C) | 20 | 30 | 20 | 470 | 30
9 | CC(C)C[C@@H]1NC(=O)[C@@H](N(C)C(=O)[C@@H](NC(=O)[C@@H]2C[C@@H](F)CN2C(=O)C2(C(F)(F)F)CC(F)(F)C2)C2CC2)CCCCCCCNC(=O)[C@H](Cc2cc(Cl)cnc2OC2CC2)N(C)C1=O [Example 103] ({cBuCO(3,3-F2-1-CF3)}-[Pro(trans-4-F)][Gly(cPr)][NMe(hhhLys)]L[NMeAla(5-Cl-2-cPrO-3-pyridyl)]; lactam 3-C) | 30 | 60 | 20 | 350 | 50
10 | CC(C)C[C@@H]1NC(=O)[C@@H](N(C)C(=O)[C@@H](NC(=O)[C@@H]2C[C@@H](F)CN2C(=O)C2(C(F)(F)F)CC(F)(F)C2)C2CC2)CC=CCCCCN(C)C(=O)[C@H](Cc2cc(Cl)cnc2OC2CC2)N(C)C1=O [Example 104] | 160 | 160 | 20 | 490 | 260
11 | CC(C)C[C@@H]1NC(=O)[C@@H](N(C)C(=O)[C@@H](NC(=O)[C@@H]2C[C@@H](F)CN2C(=O)C2(C(F)(F)F)CCC2)C2CC2)CCCCCCCNC(=O)[C@H](Cc2cc(Cl)cnc2OC2CC2)N(C)C1=O [Example 108] ({Cyclobutanecarbonyl(1-CF3)}-[Pro(trans-4-F)][Gly(cPr)][NMe(hhhLys)]L[NMeAla(5-Cl-2-cPrO-3-pyridyl)]; lactam 3-C) | 20 | 50 | 20 | 180 | 30
12 | CC(C)C[C@@H]1NC(=O)[C@@H](N(C)C(=O)[C@@H](NC(=O)[C@@H]2C[C@@H](F)CN2C(=O)C2(C(F)(F)F)CC(F)(F)C2)C2CC2)CCCCCCCN(C)C(=O)[C@H](Cc2cc(Cl)ccc2-c2cnn(C3CCC3)c2)N(C)C1=O [Example 112] ({cBuCO(3,3-F2-1-CF3)}-[Pro(trans-4-F)][Gly(cPr)][NMehhhLys(Me)]L[X151]; lactam 3-C) | 10 | 20 | 20 | 340 | 10
13 | Cc1nnc(-c2ccc(Cl)cc2C[C@H]2C(=O)N(C)CCCCC=CC[C@H](N(C)C(=O)[C@@H](NC(=O)[C@@H]3C[C@@H](F)CN3C(=O)C3(C(F)(F)F)CC(F)(F)C3)C3CC3)C(=O)N[C@@H](CC(C)C)C(=O)N2C)o1 [Example 116] | 40 | 40 | 20 | 330 | 50
14 | CC(C)C[C@@H]1NC(=O)[C@@H](N(C)C(=O)[C@@H](NC(=O)[C@@H]2C[C@@H](F)CN2C(=O)C2(C#N)CCC2)C2CC2)CCCCCCCN(C)C(=O)[C@H](Cc2cc(F)ccc2-c2cnn(C3CC3)c2)N(C)C1=O [Example 122] (X129-[Pro(trans-4-F)][Gly(cPr)][NMehhhLys(Me)]L[X26]; lactam 3-C) | 50 | 20 | 20 | 100 | 50
15 | Cc1ccc(F)cc1C[C@H]1C(=O)N(C)CCCCCCC[C@H](N(C)C(=O)[C@@H](NC(=O)[C@@H]2C[C@@H](F)CN2C(=O)C2(C(F)(F)F)CC(F)(F)C2)C2CC2)C(=O)N[C@@H](CC(C)C)C(=O)N1C [Example 123] ({cBuCO(3,3-F2-1-CF3)}-[Pro(trans-4-F)][Gly(cPr)][NMehhhLys(Me)]L[X161]; lactam 3-C) | 20 | 30 | 20 | 120 | 20
16 | CC(=O)N1C2C=C(c3ccc(F)cc3C[C@H]3C(=O)N(C)CCCCCCC[C@H](N(C)C(=O)[C@@H](NC(=O)[C@@H]4C[C@@H](F)CN4C(=O)C4(C(F)(F)F)CC(F)(F)C4)C4CC4)C(=O)N[C@@H](CC(C)C)C(=O)N3C)CC1COC2 (stereo partly drawn) [Example 124] ({cBuCO(3,3-F2-1-CF3)}-[Pro(trans-4-F)][Gly(cPr)][NMehhhLys(Me)]L[X119]; lactam 3-C) | 20 | 20 | 20 | 540 | 20
17 | CC(C)C[C@@H]1NC(=O)[C@@H](N(C)C(=O)[C@@H](NC(=O)[C@@H]2C[C@@H](F)CN2C(=O)C2(C(F)(F)F)CC(F)(F)C2)C2CC2)CC=CCCCCNC(=O)[C@H](Cc2cc(F)cnc2OC2CC2)N(C)C1=O [Example 125] | 490 | 1010 | 20 | 1140 | 550
